One series relates to LC3. Put plainly: Western blot of autophagic marker LC3 conversion and autophagic flux. It is filed as cell-based, human. The following applies: HeLa. The method, then:
(§1) After N-desmethyldauricine treatments, HeLa cancer cells were harvested and lysed in RIPA buffer (Cell Signaling Technologies Inc. (Beverly, Mass.). The cell lysates were then resolved by SDS-PAGE. After electrophoresis, the proteins from SDS-PAGE were transferred to nitrocellulose membrane which was then blocked with 5% non-fat dried milk for 60 minutes. The membrane was then incubated with LC3 primary antibodies (1:1000) in TBST overnight at 4° C. After that, the membrane was further incubated with HRP-conjugated secondary antibodies for 60 minutes. Finally, protein bands were visualized by using the ECL Western Blotting Detection Reagents (Invitrogen, Paisley, Scotland, UK).
as §1, with “treatments in the presence or absence of lysosomal inhibitor 10·M of E64d/Pepstatin A,” for “treatments,”, “Inc., Beverly,” for “Inc. (Beverly,”, “Finally, protein bands were visualized by using the ECL Western Blotting Detection Reagents (Invitrogen, Paisley, Scotland, UK).” left out
Background: In western blotting, separated proteins are transferred to a membrane and probed.

Series [1] has as its system Atg7-knockout (Atg7−/−) mouse embryonic fibroblasts. Kind of series: GFP-LC3 puncta in Atg7 deficient MEFs. It is filed as cell-based. Here is the method: (§2) GFP-LC3 puncta formation was quantified as previously described^15. In brief, both Atg7 wild-type and deficient mouse embryonic fibroblasts (MEFs) grown on coverslips in a 6-well plate were treated with indicated concentrations of N-desmethyldauricine. Both Atg7 wild-type and deficient mouse embryonic fibroblasts were then fixed in 4% paraformaldehyde for 20 minutes at room temperature and then rinsed with PBS. Slides were mounted with FluorSave™ mounting media (Calbiochem, San Diego, Calif.) and examined by fluorescence microscopy. The number of GFP-positive cells with GFP-LC3 puncta formation was examined under the Nikon ECLIPSE 80i microscope. Representative images were captured with CCD digital camera Spot RT3™ (Diagnostic Instruments, Inc., Melville, N.Y.). To quantify for autophagy, the percentage of cells with punctate GFP-LC3 fluorescence was calculated by counting the number of the cells with punctate GFP-LC3 fluorescence in GFP-positive cells. A minimum of 150 cells from 3 randomly selected fields was scored.

In series [2] the test system is AMPK-mTOR signaling pathway. Kind of series: Western blot of mTOR signaling marker proteins. It is filed as cell-based, human. The following applies: HeLa. The method, then:
HeLa cells treated with indicated time and concentrations of N-desmethyldauricine were harvested and lysed in RIPA buffer (Cell Signaling). The cell lysates were then resolved by SDS-PAGE. After electrophoresis, the proteins from SDS-PAGE were transferred to nitrocellulose membrane which was then blocked with 5% non-fat dried milk for 60 minutes. The membrane was then incubated with P-p70S6K, p70S6K, P-AMPK, AMPK and actin primary antibodies (1:1000) in TBST overnight at 4° C. respectively. After that, the membrane was further incubated with HRP-conjugated secondary antibodies for 60 minutes. Finally, protein bands were visualized by using the ECL Western Blotting Detection Reagents (Invitrogen).

A further series deals with HeLa cells. Put plainly: RT2 Profiler autophagy PCR array. The class given is cell-based, human. The source says: For PCR array analysis, N-desmethyldauricine treated HeLa cells were used to obtain the total RNA by Qiagen RNeasy® Mini Kit (Qiagen). The autophagy pathway specific RT-PCR array was used to evaluate the potential alterations of related genes after N-desmethyldauricine treatments in HeLa cells. The autophagy array comprised 87 genes selected based on their involvement in regulating autophagy induction. There were 5 housekeeping genes served as positive controls. Total RNA was reverse transcripted using the RT2 First Strand Kit. Real-time PCR reactions were carried out on ABI 7500 (Applied Biosystems) using the RT2 SYBR® Green qPCR Mastermix (Qiagen) according to manufacturer's instructions. Data analysis was performed using the Qiagen's integrated web-based software package for the PCR Array System, which automatically performs all ΔΔCt based fold-change calculations from raw threshold cycle data.

The subject of the next series is Atg7+/+ cells. Kind of series: Annexin V flow cytometry cell death, Atg7 wild-type MEFs. It is filed as cell-based, mouse. The note with it: 10 μM, 24 h. Here is the method: Cell viability was measured using an annexin V staining kit (BD Biosciences, San Jose, Calif., USA). Briefly, Atg7 wild-type (Atg7^+/+ or Atg7-wt) and Atg7 deficient (Atg7^−/− or Atg7-ko) mouse embryonic fibroblasts (MEFs) were treated with the 10 μM N-desmethyldauricine for 24 h. Cells were then harvested and analysed by multiparametric flow cytometry using FITC-Annexin V and Propidium iodide staining (BD Biosciences, San Jose, Calif., USA) according to the manufacturer's instructions. Flow cytometry was then carried out using a FACSCalibur flow cytometer (BD Biosciences, San Jose, Calif., USA). Data acquisition and analysis was performed with CellQuest (BD Biosciences, San Jose, Calif., USA). Data were obtained from three independent experiments.
In general terms: A flow cytometer gives signals particle by particle.

The next series deals with PC 12 cells. Kind of series: Crystal violet cell viability assay in PC-12. The class given is cell-based. The note with it: 7.5 μM, 24 hours. The method, then: For cell viability assay measured by crystal violet staining, PC-12 cells were incubated in 35 mm disc followed by the addition of N-desmethyldauricine at 7.5 μM for 24 hours. The cells were then incubated with crystal violet for 10 minutes followed by a ddH2O wash. The stained cells image was captured by CCD digital camera Spot RT3™ under the Nikon ECLIPSE 80i microscope with 4× magnification. Cell viability was quantified by dissolving stained cells in 10% acetic acid (200 μL/well). The colorimetric reading of the solute mixture was then determined by spectrophotometer at OD 560 nm. The percentage of cell viability was calculated using the following formula: Cell viability (%)=Cells numbertreated/Cells numberDMSO control×100. Data was obtained from three independent experiments.

The subject of series [3] is panel of cancer and normal cells. Kind of series: Quantification of autophagy GFP-LC3 puncta in cell panel. The class given is cell-based. The note with it: fluorescent microscopy. Here is the method:
as §2, with “cells” for “both Atg7 wild-type and deficient mouse embryonic fibroblasts (MEFs)”, “or without 10 μM” for “indicated concentrations”, “N-desmethyldauricine for 4 hours, the cells” for “N-desmethyldauricine. Both Atg7 wild-type and deficient mouse embryonic fibroblasts”

The test system of the next series is HeLa cancer cells. Kind of series: Quantification of autophagy GFP-LC3 puncta in HeLa. The class given is cell-based, human. The following applies: 10 μM, 4 hours, compared to DMSO control. The method, then:
as §2, with “cells” for “both Atg7 wild-type and deficient mouse embryonic fibroblasts (MEFs)”, “or without 10 μM” for “indicated concentrations”, “N-desmethyldauricine for 4 hours, the cells” for “N-desmethyldauricine. Both Atg7 wild-type and deficient mouse embryonic fibroblasts”

Take `COc1cc2c(cc1OC)[C@@H](Cc1ccc(Oc3cc(C[C@H]4NCCc5cc(OC)c(OC)cc54)ccc3O)cc1)N(C)CC2` [N-desmethyldauricine]: in the series with LC3 (western blot), the “autophagic marker LC3-II conversion” value was “induced”. In the series with LC3 (with E64d/Pepstatin A), the “LC3-II conversion in the presence of lysosomal inhibitor” value was “further enhance”. Further, the values for the GFP-LC3 puncta formation entry (in series [1]; in series [3]; in the series on HeLa cancer cells) were “not”, “increased” and “significantly induced”, respectively. Also, the p70S6K phosphorylation entry in series [2] is listed as “concomitant reduction”. For the same compound, the “phosphorylation of AMPK” value in series [2] (time dependent) is “activate”. For the same compound, in the series on HeLa cells, the “gene regulation during autophagy induction” value is “regulation of a panel of genes, i.e. Igf1, Fam176a, Ulk1, PERK, Cxcr4 and p62”. For the same compound, the cell death entry with Atg7+/+ cells is reported as “markedly induce cell death”. Further, in the series on PC 12 cells, the “toxicity in PC 12 cells” value is “no toxicity”.
